Source: the NIST ThermoML archive (doi:10.1016/j.jct.2018.01.008)
Numbers after ± are expanded uncertainties.

Assays:
[1] = Molar enthalpy of transition or fusion; settings: DSC
[2] = for Normal melting temperature: DTA
[3] = xn = mol fraction of the nth substance listed; settings: 298.15 K, 77 kPa, Crystal of unknown type, Transient plane heat source method

SMILES: O=C(O)CCCCC(=O)O [1,6-hexanedioic acid]
- Molar enthalpy of transition or fusion ([1]; Crystal): 8.57 ± 0.884 kcal/mol
- Normal melting temperature ([2]; Crystal): 150.17 ± 2 °C

SMILES: O=C(O)CCCCCCC(=O)O [1,8-octanedioic acid]
- Molar enthalpy of transition or fusion ([1]; Crystal 1): 6.94 ± 0.717 kcal/mol
- Molar enthalpy of transition or fusion ([1]; Crystal 2): 2.07 ± 0.215 kcal/mol
- Normal melting temperature ([2]; Crystal 1): 140.63 ± 2 °C
- Triple point temperature ([2]; Crystal 2, DSC): 405.59 ± 2.1 K

SMILES: O=C(O)CCCCCCC(=O)O [1,8-octanedioic acid] + CCCCCCCCCCCCCCCCCC(=O)O
- thermal conductivity ([3]; x2 = 0.936): 0.172 ± 0.013 W/m/K

SMILES: O=C(O)CCCCCCCCC(=O)O [1,10-decanedioic acid]
- Molar enthalpy of transition or fusion ([1]; Crystal): 10.6 ± 1.08 kcal/mol
- Normal melting temperature ([2]; Crystal): 131.8 ± 2 °C

SMILES: O=C(O)CCCCCCCCC(=O)O [1,10-decanedioic acid] + CCCCCCCCCCCCCCCCCC(=O)O
- thermal conductivity ([3]; x2 = 0.945): 0.1802 ± 0.013 W/m/K

SMILES: CCCCCCCCCCCCCCCCCC(=O)O [octadecanoic acid]
- Molar enthalpy of transition or fusion ([1]; Crystal): 13.7 ± 1.39 kcal/mol
- Normal melting temperature ([2]; Crystal): 69 ± 2 °C

SMILES: CCCCCCCCCCCCCCCCCC(=O)O [octadecanoic acid] + O=C(O)CCCCC(=O)O
- thermal conductivity ([3]; x1 = 0.962): 0.1439 ± 0.011 W/m/K
